Results published in BindingDB's records for doi:10.1021/jf103164r (Rutgers University, 2011).

Target: T1, Dihydrofolate reductase (Homo sapiens, UniProt P00374)
T1 sequence (P00374 whole entry): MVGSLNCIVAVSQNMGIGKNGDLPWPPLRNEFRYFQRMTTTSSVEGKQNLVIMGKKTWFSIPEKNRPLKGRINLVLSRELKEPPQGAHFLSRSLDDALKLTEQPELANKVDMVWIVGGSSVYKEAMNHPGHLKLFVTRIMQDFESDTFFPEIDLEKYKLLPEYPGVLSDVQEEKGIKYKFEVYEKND
Experiment: Inhibition of human DHFR

Structure (SMILES) | IC50
Nc1nnc(CCC(=O)c2cccs2)s1 [3-(5-Amino-[1,3,4]thiadiazol-2-yl)-1-(thiophen-2-yl)propan-1-one] | 300 µM
CS(=O)(=O)c1ccc2nc(N)sc2c1 [6-(methylsulfonyl)benzo[d]thiazol-2-amine] | 1040 µM
Nc1nc2ccc(OC(F)(F)F)cc2s1 [SMR000058231] | 312 µM
